Consider two substances from patent publication US20060148732A1, “Inhibition of NF-kappaB by triterpene compositions” (priority 2000, published 2006).

For test [1], the system named is SKH-1 hairless mice. The test can be described thus: UVB-induced skin lesions. It is filed as in vivo, mouse. The settings on record: UVB-irradiated SKH-1 mice; topical, 15 min before UVB. Here is the method: In the study, SKH-1 hairless mice are irradiated with UVB radiation at the dose of 1.8 kJ/m^2 for up to 15 min. Mice are pretreated with two different doses of F035 of (2 mg and 4 mg per dose) as well as negative controls (F060 or acetone alone). It is believed a minimum of 10 mice per group are needed to obtain statistically meaningful results. […] The studies are conducted for a short period of time to evaluate the preventive effect of the compounds. It is not expected to see visible tumors, even with UVB alone, only skin lesions within the specified time-frame. A slight erythema (minor redness of the skin) may be observed, which should disappear the next day after irradiation.
The UV apparatus used has eight Westinghouse FS40 sunlamps, an IL-1400A radiometer/photometer, and an attached IL-1403 UVB phototherapy radiometer with a SEL 240/UVB-1/TD detector. The middle part has several chambers, each holding an individual mouse. There are holes inside the chambers for proper ventilation while mice are being irradiated. The chambers rotate in circular motion during irradiation so each mouse is exposed to UVB light uniformly. […] The amount of the UVB exposure will be measured with a UVB radiometer. […]
Methods. […] The relative efficacy of the treatment was evaluated utilizing endpoints of epidermal thickness, leukocyte invasion, labeling (with BrdU) index, p53 mutations and 8-OH-dG formation. […]

Test [2] relates to PARP in Jurkat cells. The test can be described thus: Immunoblot analysis of PARP degradation. The format is cell-based, human. Here is the method:
Apoptosis induced by F035 & D1 was examined by proteolytic cleavage of poly (ADP-ribose) polymerase (PARP). Jurkat cells (2×10^6/ml) were treated with F035 (2 μg/ml) and D1 (2 μg/ml) for different lengths of time. Cell lysates were prepared in buffer containing 20 mM HEPES, 250 mM NaCl, 2 mM EDTA, 0.1% NP-40, 2 μg/ml leupeptin, 2 μg/ml aprotinin, 0.5 μg/ml benzamidine, 1 mM DTT and 1 mM PMSF. Cellular proteins (60 μg/ml) were separated on a 7.5% SDS polyacrylamide gel and electrotransferred onto a nitrocellulose membrane. The membrane was probed first with monclonal anti-PARP antibody (PharMingen) and then with anti-mouse antibody conjugated to horse radish peroxidase (HRPO). Protein bands were detected by chemiluminescense (ECL, Amersham). The extent of cleavage of the 116-kDa PARP into 85-kDa and 41-kDa peptide products was used as a measure of apoptosis (Tewari et al., 1995).
Immunoblot Analysis of PARP Degradation. Induction of apoptosis was also examined by proteolytic cleavage of PARP (Nicholson and Thornberry, 1997). Jurkat cells (3×10^6) were treated with 2 μg/ml of F094, avicin D, or avicin G at 37° C. Cell lysates were prepared in a buffer containing 20 mM HEPES, 250 mM NaCl, 2 mM EDTA, 0.1% NP-40, 2 μg/ml leupeptin, 2 μg/ml aprotinin, 0.5 μg/ml benzamidine, 1 mM DTT, and 1 mM PMSF. Cellular proteins (60 μg/ml) were separated on a 7.5% SDS polyacrylamide gel and electrotransferred onto a nitrocellulose membrane. The membrane was probed first with monoclonal anti-PARP antibody (Pharmingen) and then with anti-mouse antibody conjugated to horseradish peroxidase (HRPO). Protein bands were detected by chemiluminescence (ECL). The appearance of an 85 kDa cleavage product was used as a measure of apoptosis.
In general terms: In western blotting, separated proteins are transferred to a membrane and probed.

The test system of test [3] is mitochondrial fraction of Jurkat cells. The test can be described thus: Cytochrome c release in a cell free system. It is filed as biochemical, human. The settings on record: isolated mitochondria; 25 μM pretreatment. On the procedure: Isolation of the Submitochondrial Fraction. Jurkat cells (1.5-2.0×10^7) were suspended in 1 ml sucrose buffer (250 mM sucrose in 30 mM Tris-HCl pH 7.4) and transferred into an N2 cavitation chamber (PARR Instruments Company, Moline, Ill.). The cells were subjected to N2 cavitation (300 psi for 5 min) as per the manufacturer's instructions. Under these conditions most of the cell membrane was disrupted with no change in the mitochondrial respiratory activity. Next, DNA and the nuclear fraction were removed by centrifugation (1500 g, 30 sec). The supernatant was further centrifuged (16000 g, 10 min) and the pellet was used as the submitochondrial fraction.
To observe if monoterpene/triterpenoid saponins directly affected mitochondria to induce apoptosis, experiments were carried out using avicin G in a cell free system. Mitochondria were isolated from Jurkat cells by the N2 cavitation method.

Take Vitamin E: in test [1], the “decrease in number of cycling cells (BrdU labeling)” value was 30%.
Take “z-Val-Ala-Asp-CH2F [z-vad fmk, reference compound]”: the “effect on cleavage of PARP induced by F094 or avicins” value in test [2] (100 μM pretreatment 1 hour) is “totally blocked the cleavage of PARP”. In addition, the “effect on F035 induced cleavage of PARP” value in test [2] (100 μM pretreatment for 1 h) is recorded as “completely reversed”. For the same substance, the “effect on avicin G induced cytochrome c release” value in test [3] is “did not affect the release of cytochrome c”.
